“And” between values parts separate entries of the source, which are not always exact repeats. Equal values may be shown once.
How the values were obtained:
[1] = xn = mol fraction of the nth substance listed

CC(=O)CC(C)C
viscosity
Conditions | 293.15 K | 298.15 K | 303.15 K | 308.15 K | 313.15 K | 318.15 K | 323.15 K
100 kPa | 0.59 mPa·s | – | 0.53 mPa·s | – | 0.47 mPa·s | – | 0.42 mPa·s
101 kPa | 0.575 mPa·s | 0.543 mPa·s and 0.54 mPa·s and 0.543 mPa·s | – | 0.494 mPa·s and 0.476 mPa·s and 0.456 mPa·s | 0.443 mPa·s | – | 0.401 mPa·s
101.3 kPa | – | 0.543 mPa·s | 0.519 mPa·s | – | 0.467 mPa·s | – | –
101.32 kPa | 0.5848 mPa·s | 0.5463 mPa·s | – | 0.4871 mPa·s | – | – | –
101.33 kPa | 0.5848 mPa·s and 0.586 mPa·s | 0.5463 mPa·s and 0.542 mPa·s | 0.52 mPa·s | 0.4871 mPa·s and 0.505 mPa·s | – | 0.447 mPa·s | –

CC(C)CC(=O)CC(C)C
100 kPa
Conditions | viscosity [mPa·s]
293.15 K | 0.95
298.15 K | 0.905
303.15 K | 0.86
308.15 K | 0.81
313.15 K | 0.76
318.15 K | 0.72
323.15 K | 0.67

CC(C)CC(C)(C)C
viscosity
Conditions | 293.15 K | 298.15 K | 303.15 K | 308.15 K | 313.15 K | 318.15 K | 323.15 K
100 kPa | – | 0.492 mPa·s | – | 0.45 mPa·s | 0.431 mPa·s | – | –
101 kPa | 0.498 mPa·s | – | 0.451 mPa·s and 0.445 mPa·s | 0.428 mPa·s and 0.427 mPa·s | – | 0.378 mPa·s | 0.364 mPa·s and 0.3593 mPa·s
101.33 kPa | – | 0.462 mPa·s and 0.492 mPa·s and 0.4842 mPa·s | – | 0.412 mPa·s and 0.441 mPa·s | 0.391 mPa·s and 0.4056 mPa·s | 0.381 mPa·s and 0.3848 mPa·s | –

CCC12CC3CC(CC(C3)C1)C2
100 kPa
Conditions | viscosity [mPa·s]
293.15 K | 6.43
298.15 K | 5.606
303.15 K | 4.931
308.15 K | 4.365
313.15 K | 3.887

CCCCCCCCCCCCCC[P+](CCCCCC)(CCCCCC)CCCCCC.c1nnc[n-]1
100 kPa
Conditions | viscosity [mPa·s]
293.15 K | 1320
298.15 K | 918
303.15 K | 654
308.15 K | 477
313.15 K | 354
318.15 K | 269
323.15 K | 209

CCCCCCO
viscosity
Conditions | 100 kPa | 101 kPa | 101.3 kPa | 101.33 kPa
293.15 K | 5.36 mPa·s and 5.363 mPa·s and 5.273 mPa·s | 4.963 mPa·s | 5.361 mPa·s | 4.993 mPa·s
298 K | 4.502 mPa·s | – | – | –
298.15 K | 4.45 mPa·s | – | 4.342 mPa·s and 4.403 mPa·s | –
303 K | – | – | – | 3.82 mPa·s
303.15 K | 3.883 mPa·s | – | 3.69 mPa·s | –
308 K | – | – | – | 3.3 mPa·s
308.15 K | – | – | 3.139 mPa·s and 3.604 mPa·s | –
313 K | – | 2.903 mPa·s | – | 2.87 mPa·s and 2.82 mPa·s
313.15 K | 2.9 mPa·s and 2.896 mPa·s | 2.86 mPa·s and 3.451 mPa·s and 2.934 mPa·s | – | –
318.15 K | 2.571 mPa·s and 2.656 mPa·s | 2.397 mPa·s and 2.656 mPa·s | 2.655 mPa·s | 2.601 mPa·s
323 K | – | – | – | 2.183 mPa·s
323.15 K | 2.2 mPa·s | 2.072 mPa·s | – | 2.267 mPa·s

CCC(C)N (centres undefined) + O
viscosity [mPa·s], [1], 101.33 kPa
Conditions | x1 = 0.1 | x1 = 0.1999 | x1 = 0.3 | x1 = 0.3998 | x1 = 0.4994 | x1 = 0.5999 | x1 = 0.6998 | x1 = 0.7997 | x1 = 0.8999
298.15 K | 2.276 | 2.556 | 2.232 | 1.774 | 1.322 | 0.9973 | 0.7605 | 0.5992 | 0.4885
303.15 K | 1.937 | 2.173 | 1.917 | 1.538 | 1.165 | 0.8899 | 0.6906 | 0.552 | 0.4543
308.15 K | 1.669 | 1.865 | 1.659 | 1.341 | 1.033 | 0.8024 | 0.6317 | 0.5102 | 0.4248
313.15 K | 1.453 | 1.616 | 1.443 | 1.18 | 0.921 | 0.7245 | 0.5794 | 0.4736 | 0.3983
318.15 K | 1.275 | 1.417 | 1.269 | 1.047 | 0.8266 | 0.6602 | 0.534 | 0.4409 | 0.3744
323.15 K | 1.138 | 1.25 | 1.123 | 0.9361 | 0.7467 | 0.61 | 0.4935 | 0.4113 | 0.3528

CCCCCCCCCCCCCC[P+](CCCCCC)(CCCCCC)CCCCCC.c1nnc[n-]1 + O
Conditions | viscosity [mPa·s]
[1], 298.15 K, 100 kPa, x2 = 0.7956 | 114

CCCCCCO + O
viscosity [mPa·s], [1], 101 kPa
Conditions | 298.15 K | 308.15 K | 318.15 K
x2 = 0.0013 | – | – | 2.573
x2 = 0.0042 | 4.567 | 3.388 | –
x2 = 0.0554 | – | – | 2.513
x2 = 0.0593 | 4.427 | 3.295 | –
x2 = 0.1019 | – | – | 2.475
x2 = 0.1079 | 4.355 | 3.237 | –
x2 = 0.1483 | 4.324 | 3.209 | 2.447
x2 = 0.1875 | – | – | 2.432
x2 = 0.1933 | 4.314 | 3.193 | –
x2 = 0.2248 | – | – | 2.425
x2 = 0.2367 | 4.322 | 3.192 | –
x2 = 0.2673 | 4.341 | 3.198 | 2.427
x2 = 0.2981 | 4.369 | 3.213 | –
x2 = 0.3116 | – | – | 2.439

CCOCC + O
[1], 298.15 K, 101 kPa
Conditions | viscosity [mPa·s]
x1 = 0.00334 | 0.9366
x1 = 0.00369 | 1.053
x1 = 0.00509 | 0.9597
x1 = 0.00551 | 1.073
x1 = 0.00769 | 0.9959
x1 = 0.00866 | 1.107
x1 = 0.00871 | 1.01
x1 = 0.0107 | 1.132
x1 = 0.0113 | 1.138
x1 = 0.0149 | 1.088
x1 = 0.973 | 0.27
x2 = 0.0179 | 0.269

CN(C)C(=N)NC(=N)N.Cl + O
viscosity [mPa·s], [1]
Conditions | 298.15 K | 303.15 K | 308.15 K | 313.15 K | 318.15 K
100 kPa, x1 = 0.00018 | 0.894 | – | – | – | –
100 kPa, x1 = 0.0003598 | 0.896 | 0.803 | – | – | –
100 kPa, x1 = 0.0005412 | 0.898 | 0.805 | 0.726 | – | –
100 kPa, x1 = 0.0007212 | 0.9 | – | – | 0.663 | –
100 kPa, x1 = 0.0009 | – | – | – | – | 0.607
100 kPa, x1 = 0.0009014 | 0.902 | 0.809 | 0.73 | 0.665 | –
100 kPa, x1 = 0.001079 | 0.904 | 0.811 | 0.732 | 0.667 | –
100 kPa, x1 = 0.001259 | 0.906 | – | 0.734 | 0.669 | –
100 kPa, x1 = 0.001439 | 0.908 | 0.815 | 0.736 | 0.671 | –
100 kPa, x1 = 0.001619 | 0.91 | 0.817 | 0.738 | 0.673 | –
100 kPa, x1 = 0.001798 | 0.912 | 0.819 | 0.74 | 0.675 | –
100 kPa, x1 = 0.0018 | – | – | 0.739 | 0.675 | 0.613
100 kPa, x1 = 0.0027 | – | – | 0.75 | 0.68 | 0.622
101 kPa, x1 = 0.00011 | – | – | 0.721 | – | 0.597
101 kPa, x1 = 0.000241 | – | – | 0.723 | – | 0.598
101 kPa, x1 = 0.000481 | – | – | 0.726 | – | 0.6
101 kPa, x1 = 0.000722 | 0.903 | – | 0.729 | – | 0.601
101 kPa, x1 = 0.000965 | 0.907 | – | 0.732 | – | 0.604
101 kPa, x1 = 0.00121 | 0.91 | – | 0.735 | – | 0.606

Reference: the CheMixHub viscosity set
